Source: publication PMC9841525, “Chemical Blockage of the Mitochondrial Rhomboid Protease PARL by Novel Ketoamide Inhibitors Reveals Its Role in PINK1/Parkin-Dependent Mitophagy” (Journal of Medicinal Chemistry, 2022)
*1 amine or outer side, *2 acyl side, *3 side chain or, on linkers, in order; H or OH if unused. Where a SMILES comes first, the peptide text is derived from it. [ ]: non-standard residue; d: D form. The star is where a group is joined. NH(4-phenylbutyl) = c1ccc(CCCCN*)cc1; X1 = C[C@H](N[*:1])C(=O)C(=O)[*:2]

Experiments:
Parkin [1] = test: Parkin recruitment to mitochondria, subcellular fractionation and immunoblot; type: cell-based, human; conditions: HEK293 T-REx PINK1 cells, HA-Parkin-IRES-GFP; 5 μM compound 5, CCCP 10 μM or Antimycin A 30 μM
Description: (§1) Inducible stable Flp-In HEK293 T-REx cells expressing PINK1 were described previously.[33] HEK293 T-REx PINK1 and HEK293T cells were grown in DMEM (Gibco) supplemented with 10% (v/v) fetal bovine serum (ThermoFisher), 1% (v/v) GlutaMAX (Gibco), 1% (v/v) sodium pyruvate (Gibco), 125 μg/mL hygromycin (Invitrogen), and 10 μg/mL blasticidin (Gibco) or DMEM supplemented with 10% (v/v) fetal bovine serum, respectively, at 37 °C in 5% (v/v) CO2. For microscopy, cells were seeded on poly-L-lysine (Sigma)-coated slides. Transient plasmid transfections were performed using 25 kDa linear polyethylenimine (Polysciences). Plasmid (100 ng) encoding HA-Parkin-IRES-GFP, mito-mCherry or Parkin-mEGFP, or 500 ng plasmid encoding PGAM5-FLAG were used per 6-well. Total transfected DNA was 2 μg/well. For siRNA transfection, 2 × 10^5 cells were seeded per 6-well and on the next day transfected with 20 nM siRNA-oligonucleotide using lipofectamine RNAiMAX (ThermoFisher). Cells were analyzed 27 h post-transfection or five days post-siRNA-transfection. HEK293 T-REx PINK1 cells were induced with 0.3 μg/mL doxycycline for 24 h before further processing. Hoechst staining (1 μg/mL) was done immediately before adding treatment to the cells. Treatments were administered for the indicated times before processing; CCCP (Sigma) was always used as 10 μM for 3 h and Antimycin A (Sigma) as 30 μM for 3 h.
Unless mentioned otherwise, all steps were performed at 4 °C. For subcellular fractionation to separate cellular content into cytosolic and mitochondrial fractions, cells were washed with PBS, harvested in PBS-EDTA (1 mM EDTA, 0.2 g/L D-glucose), and centrifuged at 500 × g for 5 min. […]
For immunoblot analysis in other cases, cells were either processed as described above or washed with PBS and directly lysed with Tris-glycine SDS-PAGE sample buffer and heated for 15 min at 65 °C. […] For quantification, ImageJ was used (http://rsb.info.nih.gov/ij/). […]

Parkin [2] = test: Parkin recruitment to mitochondria and mitochondrial morphology, fluorescence microscopy; type: cell-based, human; conditions: HEK293 T-REx PINK1 cells, 3 h; 5 μM compound 5, CCCP or Antimycin A, vs DMSO
Description: as §1
For fixation, cells were incubated for 15 min with 4% formaldehyde (16% formaldehyde diluted in PBS, Thermo Scientific) and washed in PBS. The cover glasses were mounted with Fluoromount-G (Southern Biotech) on microscope slides. […] Parkin recruitment events to the mitochondria were counted by hand throughout each z-stack and cell. […] JC-1 images were handled as summed intensity z-stack projections, as well as subjected to flatfield correction and subtraction of background before measuring the fluorescence levels normalized to the number of cell nuclei. The fluorescence intensity ratio between the red and green signal was calculated and compared to DMSO as a ratio of 1. Data were evaluated using Excel and GraphPad Prism 6.

## CC(=O)N[C@@H](C)C(=O)N[C@H](C(=O)N[C@@H](Cc1ccccc1)C(=O)N[C@@H](CC(C)C)C(=O)N[C@@H](C)C(=O)C(=O)NCCCCc1ccccc1)C(C)C [compound 5] (Ac-AVFL[X1]-{NH(4-phenylbutyl)})
Parkin [1]
  Parkin recruitment to the mitochondrial fraction: Parkin recruitment to the mitochondrial fraction, albeit in a lower quantity than in the two chemically induced stress conditions
Parkin [2]
  Recruitment of Parkin-mEGFP to mitochondria (microscopy): significant recruitment of mEGFP-tagged Parkin to the mitochondria
